Measurements: article PMC12153265 (mBio, 2025)

Assays:
IFN-β promoter = experiment: IFN-β induction by Sendai virus, luciferase reporter assay in 293T cells; type: cell-based, human; settings: SeV infection; for IFN induction compared with compound 1, reporter assay: 293T cells
Description: (§1) HEK293T cells in 24-well plates (~50% cell density) were transfected with a reporter plasmid cocktail containing 50 ng luciferase reporter plasmid (ISRE-luc, IFN-β-luc, or NF-κB), 5 ng TK-renilla luciferase reporter (control vector), and the indicated expression plasmids by calcium phosphate precipitation. Whole cell lysates (WCLs) were prepared at 24–30 h post-transfection and used for dual luciferase assay according to the manufacturer’s instruction (Promega).

SARS-CoV-2 [1] = experiment: SARS-CoV-2 infection of K18-hACE2 transgenic mice; type: in vivo, mouse; settings: 50 mg/kg daily intraperitoneal, 3 dpi
Description: K18-hACE2 transgenic mice were intraperitoneally administered with compound 10 at a dose of 50 mg/kg and vehicle 1 day before infection with 1 × 10^4 PFU of SARS-CoV-2. Body weight and compound administration were monitored daily. Mice were humanely euthanized at 3 dpi, and the lung tissues were harvested for viral titration, real-time PCR, and pathological analysis.
K18-ACE2 transgenic mice were euthanized on day 3 after SARS-CoV-2 infection. Fresh lung pieces were fixed with 10% formalin for 24 h. The post-caval lobes of the […] were sent to the histology lab in USC of the School of Pharmacy Core Facilities for processing and hematoxylin and eosin (H&E) staining. In brief, tissues were dehydrated and embedded in paraffin. Paraffin-embedded tissue blocks were sectioned with 5 µm thickness. Sections were processed by H&E staining and imaged by ZEISS Axio Scope.A1 microscope (Zeiss) and analyzed by ZEISS ZEN Blue software.
Immunofluorescence staining was performed on the middle lobes of the […] fixed with 10% formalin. Tissues were embedded in optimal cutting temperature (OCT) compound and frozen immediately at −80°C. Subsequently, the frozen tissues were cut into 8 µm sections using a cryostat-microtome. Sections were blocked with 10% normal goat serum diluted in PBST for 1 h and incubated with primary antibodies diluted in 10% normal goat serum overnight at 4°C. After washing with PBST, sections were incubated with species-matched secondary antibodies for 30 min at room temperature. Then tissue sections were washed with PBST, mounted with VectaMount Mounting Medium (Vector Laboratories), and analyzed by a confocal microscope (Nikon).

SARS-CoV-2 [2] = experiment: SARS-CoV-2 infection of AAV-hACE2-transduced C57BL/6 J mice; settings: 35 mg/kg daily intraperitoneal, 4 dpi
Caco-2 cells = experiment: Cytotoxicity, XTT assay, uninfected Caco-2 cells; type: cell-based, human; settings: uninfected Caco-2, XTT assay, 72 h; read-out: CC50, cell viability
Description: (§2) Caco-2, NHBE, Calu-3, and Vero E6-hACE2 cells were pre-treated with compound 1, 6, or 10 and infected with SARS-CoV-2 (MOI = 0.1 for Caco-2, NHBE, and Calu-3; MOI = 0.001 for Vero E6-hACE2). Compounds were added daily during viral infection until the end of the experiments (72 h for Caco-2 and Calu-3, 48 h for NHBE, and 24 h for Vero E6-hACE2), with DMSO used as a control. Viral titer in the medium was determined by plaque assay. Cytotoxicity assay was performed for uninfected Caco-2, NHBE, Calu-3, and Vero E6-hACE2 cells with the same treatment schedule as that of viral replication assay. Cytotoxicity was determined with an XTT assay kit (Roche), according to the manufacturer’s instructions. The percentage of inhibition was normalized to DMSO control. IC50, IC90, and CC50 were calculated with GraphPad Prism software.

SARS-CoV-2 [3] = experiment: SARS-CoV-2 replication (plaque assay) and cytotoxicity (XTT) in Calu-3 cells; type: cell-based; settings: Calu-3, MOI = 0.1, 72 h
Description: as §2

SARS-CoV-2 [4] = experiment: SARS-CoV-2 replication in Caco-2 cells, viral titer in the medium by plaque assay; type: cell-based; settings: for antiviral activity in SARS-CoV-2 infection compared with compound 1 / IC50: Caco-2, MOI = 0.1, 72 h; for antiviral activity in SARS-CoV-2 infection compared with compound 1 / reduction of viral yield: plaque assay; for IC50: viral titer in medium by plaque assay, read-out: IC50, inhibition of SARS-CoV-2 replication; for reduction of viral yield: MOI = 0.1, 72 h
Description: (§3) NHBE (1.5 × 10^5 cells), Calu-3 (5 × 10^5 cells), or Caco-2 cells (2 × 10^5 cells) were seeded in one well of 12-well plates. Cells were washed with FBS-free medium before viral infection. SARS-CoV-2 was diluted in 250 µL (per well) medium and added to the above cells. Viral infection was incubated on a rocker for 45 min at 37°C. Cells were washed with fresh medium, and medium containing 10% FBS was added.
(§4) Vero E6-hACE2 cells were seeded in 6- or 12-well plates. When cell confluence reached 100%, cells were washed with FBS-free medium and infected with medium containing serially diluted SARS-CoV-2. After infection, the medium was removed, and overlay medium containing FBS-free 1× DMEM and 1% low-melting point agarose was added. At 72 h post-infection, cells were fixed with 4% paraformaldehyde (PFA) overnight and stained with 0.2% crystal violet. Plaques were counted on a lightbox.
as §2

CTPS1 [5] = biological target: T1, CTPS1 (Homo sapiens, UniProt P17812); experiment: Covalent labeling of FLAG-CTPS1 in 293T cells, in-gel fluorescence imaging; type: binding; settings: FLAG-CTPS1 expressing 293T cells, 2 h
T1 construct: expressed in transfected cells; host or cells: 293T cells expressing FLAG-CTPS1
T1 sequence (P17812 1-591): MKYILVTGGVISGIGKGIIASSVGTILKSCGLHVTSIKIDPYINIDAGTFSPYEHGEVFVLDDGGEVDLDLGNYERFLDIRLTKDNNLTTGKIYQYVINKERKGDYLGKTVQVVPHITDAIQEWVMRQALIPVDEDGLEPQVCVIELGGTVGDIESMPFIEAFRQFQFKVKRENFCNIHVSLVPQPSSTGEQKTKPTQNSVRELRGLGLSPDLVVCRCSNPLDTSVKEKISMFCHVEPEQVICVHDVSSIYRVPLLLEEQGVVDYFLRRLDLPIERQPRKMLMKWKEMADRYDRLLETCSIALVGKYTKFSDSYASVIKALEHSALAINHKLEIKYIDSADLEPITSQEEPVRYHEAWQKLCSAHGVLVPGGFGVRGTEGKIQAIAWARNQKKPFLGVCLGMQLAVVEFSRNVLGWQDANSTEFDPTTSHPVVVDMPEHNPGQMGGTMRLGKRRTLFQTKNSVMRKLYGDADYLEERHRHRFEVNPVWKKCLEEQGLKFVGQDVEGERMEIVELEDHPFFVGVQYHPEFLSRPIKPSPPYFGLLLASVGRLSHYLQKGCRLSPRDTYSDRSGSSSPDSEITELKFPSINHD

NF-κB = NF-κB activation by Sendai virus, luciferase reporter assay in 293T cells; type: cell-based, human; settings: SeV infection
Description: as §1

IFNB1 = experiment: Antiviral gene expression in 293T cells infected with Sendai virus, real-time PCR
[6] = Cytotoxicity, XTT assay, uninfected NHBE cells; type: cell-based; settings: human, read-out: CC50, cell viability
Description: as §2

[7] = Cytotoxicity, XTT assay, uninfected Caco-2 cells; type: cell-based, human; settings: human, uninfected Caco-2 cells, uninfected Caco-2, XTT assay, read-out: CC50, cell viability
Description: as §2

SARS-CoV-2 [8] = experiment: SARS-CoV-2 replication in NHBE cells, viral titer in the medium by plaque assay; type: cell-based; settings: Severe acute respiratory syndrome coronavirus 2, NHBE, 48 h
Description: as §3, §4
Caco-2, NHBE, Calu-3, and Vero E6-hACE2 cells were pre-treated with compound 1, 6, or 10 and infected with SARS-CoV-2 (MOI = 0.1 for Caco-2, NHBE, and Calu-3; MOI = 0.001 for Vero E6-hACE2). […] Viral titer in the medium was determined by plaque assay. […] Cytotoxicity was determined with an XTT assay kit (Roche), according to the manufacturer’s instructions. […] IC50, IC90, and CC50 were calculated with GraphPad Prism software.

SARS-CoV-2 [9] = experiment: SARS-CoV-2 RNA abundance in infected Caco-2 cells, real-time PCR; type: cell-based; settings: MOI = 0.1, 72 h
IFNB1, ISG56, CCL5, Mx1 = experiment: Antiviral gene expression in SARS-CoV-2-infected Caco-2 cells, real-time PCR; type: cell-based, human; settings: Caco-2, 2 µM and 6 µM, MOI = 0.1, 48 h
CTPS1 [10] = biological target: CTPS1 (Homo sapiens, UniProt P17812); experiment: CTPS1 enzymatic activity assay (UTP to CTP conversion, mass spectrometry); type: biochemical; settings: read-out: inhibition of CTP synthesis compared with DMSO
CTP synthesis = experiment: Intracellular CTP/CDP synthesis, [amide-15N]glutamine tracing and mass spectrometry

Structure (SMILES): CCCCCNC(=O)c1cccc(NC(=O)CCl)c1 [Compound 10]
- IFN induction compared with compound 1, reporter assay (IFN-β promoter): better effect on IFN induction than compound 1
- lung pathology, H&E staining (inflammatory infiltration) (SARS-CoV-2 [1]): weak and isolated infiltration of immune cells
- viral N protein in the lung, immunofluorescence staining (SARS-CoV-2 [1]): lower expression of viral protein
- immune gene expression in the lung (SARS-CoV-2 [1]; vs vehicle): elevated
- viral RNA abundance in the lung (SARS-CoV-2 [1]; vs vehicle): reduced
- viral titer in the lung (SARS-CoV-2 [1]; vs vehicle, plaque assay): reduced
- viral titer in the lung (SARS-CoV-2 [2]; plaque assay): decreased
- expression of cellular antiviral genes (Ifnb1, Isg15, Isg56, Mx1) in the lung (SARS-CoV-2 [2]; real-time PCR): elevated
- CC50 (Caco-2 cells): 6170 nM
- CC50 value relative to IC50 value (SARS-CoV-2 [3]): 10 fold
- antiviral activity in SARS-CoV-2 infection compared with compound 1 (SARS-CoV-2 [4]): more robust antiviral activity
- IC50 (SARS-CoV-2 [4]): 110 nM

Structure (SMILES): C#CCOc1cccc(NC(=O)c2cccc(NC(=O)CCl)c2)c1 [Compound 2]
- covalent labeling of CTPS1 (CTPS1 [5]): covalently labeled CTPS1 in a dose-dependent manner

Structure (SMILES): COc1cccc(NC(=O)c2cccc(NC(=O)CCl)c2)c1 [Compound 1]
- IFN induction, luciferase reporter (IFN-β promoter; CTPS1-depleted 293T cells): failed to do so
- IFN induction, luciferase reporter (IFN-β promoter; control 293T cells): elevated IFN induction
- NF-κB activation, luciferase reporter (NF-κB): no effect
- IFNB1 expression (IFNB1; 293T cells infected with Sendai virus): increased IFNB1 expression in a dose-dependent manner
- expression of IFNB1 and ISG56 inhibited by Nsp8 and ORF8 (IFNB1; 293T cells transfected with Nsp8 or ORF8, SeV infection, 6 h): significantly restored
- CC50 at 48 h [6]: 3750 nM
- CC50 at 72 h [7]: 2420 nM
- IC50 (SARS-CoV-2 [8]; read-out: IC50, inhibition of SARS-CoV-2 replication): 970 nM
- IC90 (SARS-CoV-2 [8]; read-out: IC90, inhibition of SARS-CoV-2 replication): 8700 nM
- CC50 value relative to IC50 value (SARS-CoV-2 [3]): IC50 values as high as their CC50 values
- reduction of viral RNA abundance (Nsp1, N, E) (SARS-CoV-2 [9]; Caco-2, 2 µM): > 50%
- reduction of viral RNA abundance (Nsp1, N, E) (SARS-CoV-2 [9]; Caco-2, 6 µM): ~ 75%
- expression of antiviral genes (IFNB1, ISG56, CCL5, Mx1) (IFNB1, ISG56, CCL5, Mx1): elevated
- inhibition at 10 µM (CTPS1 [10]): 55 to 83%
- intracellular concentration of [amide-15N]CTP and [amide-15N]CDP (CTP synthesis; Caco-2 cells infected with SARS-CoV-2): potently diminished
- [amide-15N]CTP and [amide-15N]CDP (CTP synthesis; Caco-2 cells stably expressing ORF8): diminished
- reduction of viral yield (SARS-CoV-2 [4]; Caco-2, 2 µM): ~ 10 fold
- reduction of viral yield (SARS-CoV-2 [4]; Caco-2, 6 µM): ~50 fold
- IC90 (SARS-CoV-2 [4]; Severe acute respiratory syndrome coronavirus 2, Caco-2, 72 h, read-out: IC90, inhibition of SARS-CoV-2 replication): 1560 nM
- IC50 (SARS-CoV-2 [4]; Severe acute respiratory syndrome coronavirus 2): 170 nM

Structure (SMILES): COc1ccccc1NC(=O)c1cccc(NC(=O)CCl)c1 [Compound 6]
- IFN induction compared with compound 1, reporter assay (IFN-β promoter): better effect on IFN induction than compound 1
- CC50 (Caco-2 cells): 2820 nM
- CC50 value relative to IC50 value (SARS-CoV-2 [3]): IC50 values as high as their CC50 values
- antiviral activity in SARS-CoV-2 infection compared with compound 1 (SARS-CoV-2 [4]): more robust antiviral activity
- IC50 (SARS-CoV-2 [4]): 140 nM
